Data reported in PMC11393688, “Design and synthesis of new 1,2,4-oxadiazole/quinazoline-4-one hybrids with antiproliferative activity as multitargeted inhibitors” (Frontiers in Chemistry, 2024).

Experiments:
BRAF^V600E [1] = test system: BRAF^V600E; parameters: method as in Hisham et al., 2022; Hisham et al., 2023; details: ref Hisham et al., 2022, 2023, read-out: IC50 against BRAF^V600E; cited from earlier work
[2] = test system: various cancer cell lines; parameters: method as in Hisham et al., 2022; Hisham et al., 2023; details: ref Hisham et al., 2022, 2023; cited from earlier work
[3] = test system: four human cancer cell lines (HT-29, Panc-1, A-549, MCF-7); test: Average antiproliferative activity (GI50) over four cancer cell lines; type: cell-based; details: average IC50 against the four cancer cell lines
Method: (§1) 4.2.1.2. Assay for antiproliferative effect
(§2) To explore the antiproliferative potential of compounds MTT assay was performed according to previously reported procedure using different cell lines to explore the antiproliferative potential of […]
(§3) calculate the total nuclear DNA, a fluorescent dye (propidium iodide, PI) is used which can attach to the DNA, thus offering a quick and precise technique. PI cannot pass through the cell membrane and its signal intensity can be considered as directly proportional to quantity of cellular DNA.
(§4) Cells whose cell membranes are damaged or have changed permeability are counted as dead ones.
(§5) The assay was performed by seeding the cells of different cell lines at a density of 3000-7500 cells/well (in 200µl medium) in culture plates followed by incubation for 24h at 37 °C in humidified 5% CO2/95% air atmospheric conditions. The medium was removed; the compounds were added to the plates at 10 µM concentrations (in 0.1% DMSO) in triplicates, followed by incubation for 48 h. DMSO (0.1%) was used as control. After incubation, medium was removed […]
(§6) 80 °C, the plates were allowed to freeze for 24 h, followed by thawing at 25 °C. […]
(§7) (Polar-Star BMG Tech) was used to record the readings at excitation and emission wavelengths of 530 and 620 nm for each well. The percentage cytotoxicity of compounds was calculated using […]
(§8) Where ATC= Absorbance of treated cells and AC= Absorbance of control. Erlotinib was used as positive control in the assay.

[4] = test system: lung cancer (A-549) cell line; test: Antiproliferative MTT assay, A-549; type: cell-based; details: Homo sapiens, A549, A-549 lung cancer cells, read-out: Antiproliferative activity IC50 ± SEM A-549
Method: as §1, §2, §3, §4, §5, §6, §7, §8

[5] = test system: breast cancer (MCF-7) cell line; test: Antiproliferative MTT assay, MCF-7; type: cell-based; details: Homo sapiens, MCF7, MCF-7 breast cancer cells, read-out: Antiproliferative activity IC50 ± SEM MCF-7
Method: as §1, §2, §3, §4, §5, §6, §7, §8

[6] = test system: pancreatic cancer (Panc-1) cell line; test: Antiproliferative MTT assay, Panc-1; type: cell-based; details: Homo sapiens, Panc-1 pancreatic cancer cells, read-out: Antiproliferative activity IC50 ± SEM Panc-1
Method: as §1, §2, §3, §4, §5, §6, §7, §8

EGFR [7] = biological target: T1, EGFR (Homo sapiens, UniProt P00533); test: EGFR-TK inhibitory assay; type: biochemical; details: read-out: EGFR inhibition IC50 ± SEM
T1 construct: amino acids 645–1186; His6 (N); made in house; host or cells: Sf-9 insect cells (baculovirus; pBlueBacHis2B / pFASTBacHTc)
Method: 4.2.1.3. EGFR inhibitory assay
Sf-9 cells were infected for 72h for protein expression. […]
centrifugation for 20 min.
Histidine-linked proteins were first eluted with 250 and then […]
using wash buffer. Europium-tagged antiphosphotyrosine antibody (75 µL, 400 ng) was added to each well followed by incubation of 1h and then washing of the plates using buffer. The enhancement solution was added to each well and the signal was recorded at excitation and […]
The autophosphorylation percentage inhibition by compounds was calculated using the following equation: […]
(1 picture or pasted object on this page, not shown here)

[8] = Cell viability, MTT test on normal cell line; type: cell-based; details: human, MCF-10A mammary gland epithelial cells (normal cell line), MCF-10A normal cells, 4 days incubation
Method: The human mammary gland epithelial (MCF-10A) normal cell line was used to test the viability of novel compounds 9a-o ([Mahmoud et al., 2022]; [Mekheimer et al., 2022]). After 4 days of incubation on MCF-10A cells, the cell viability of compounds 9a-o was determined using the MTT test.
The human mammary gland epithelial (MCF-10A) normal cell line was used to test the viability of compounds 9a-o ([Mahmoud et al., 2022]; [Mekheimer et al., 2022]). Refer to Supplementary Appendix A (Supplementary Material) for more details.
4.2. Biological evaluation
4.2.1. Cytotoxic activity using MTT Assay and evaluation of IC50
MTT assay was carried out to study the effect of compounds on mammary epithelial cells (MCF-10A). The medium in which cells were propagated contained Dulbecco's modified Eagle's medium (DMEM)/ Ham's F-12 medium (1:1) supplemented with epidermal growth factor (20 ng/mL), hydrocortisone (500 ng/mL), insulin (10 μg/mL), 2 mM glutamine and 10% foetal calf serum.
After every 2-3 days, the cells were passaged using trypsin ethylenediamine tetra acetic acid (EDTA). The cells were seeded at a density of 10^4 cells mL-1 in flat-bottomed culture plates containing 96 wells each. After 24 h, medium was removed from the plates and the compounds in (in 0.1% DMSO) were added (in 200 μL medium to yield a final concentration of 0.1% v/v) to the wells of plates. A single compound was designated with four wells followed by incubation of plates for 96h at 37°C. After incubation, medium was removed completely from the plates followed by addition of MTT (0.4 mg/mL in medium) to each well and subsequent incubation of plates for 3h. MTT (along with the medium) was removed and DMSO (150μL) was added to each well of the culture plates, followed by vertexing and subsequent measurement of absorbance (at 540 nm) using microplate reader. The data are shown as percentage inhibition of proliferation in comparison with controls containing 0.1% DMSO.

EGFR^T790M = EGFR^T790M (Homo sapiens, UniProt P00533, T790M); test: EGFR^T790M inhibitory assay (HTRF KinEASE-TK)
[9] = test system: colon cancer (HT-29) cell line; test: Antiproliferative MTT assay, HT-29; type: cell-based; details: Homo sapiens, HT-29 colon cancer cells, read-out: Antiproliferative activity IC50 ± SEM HT-29
BRAF^V600E [10] = biological target: T2, BRAF^V600E (Homo sapiens, UniProt P15056, V600E); test: BRAF^V600E kinase inhibitory assay; type: biochemical, Mouse; details: read-out: BRAF^V600E inhibition IC50 ± SEM
T2 construct: Mouse full-length GST-tagged BRAFV600E; GST; purchased Invitrogen PV3849
Method: Refer to Supplementary Appendix A for more details. […]
4.2.1.4. BRAF kinase assay […]
against BRAF. Mouse full-length GST-tagged BRAFV600E (7.5 ng, Invitrogen, PV3849) was pre-incubated with drug (1 µL) and assay dilution buffer (4 µL) for 60 min at 25 °C. In assay dilution buffer, a solution (5 µL) containing MgCl2 (30 mM), ATP (200 µM), recombinant human full length (200 ng) […] N-terminal His-tagged MEK1 (Invitrogen) was added to start the assay, subsequent to incubation for 25 min at 25 °C. The assay was stopped using 5X protein denaturing buffer (LDS) solution (5 µL). To further denature the protein, heat (70° C) was applied for 5 min.
10 µL of each reaction was loaded into the precast plates and electrophoresis was allowed to proceed. After completion of electrophoresis, the front part of the precast gel plate (holding hot ATP) was cut and afterwards cast-off. The dried gel was developed using a phosphor screen. A […]
served as positive control. […]
(FITC) and propidium iodide (PI) staining kit (BD Pharmingen, San Diego, USA). […]
4.3. Statistical analysis
Computerized Prism 5 program was used to statistically analyzed data using one-way ANOVA test followed by Tukey’s as post ANOVA for multiple comparison at P ≤.05. Data were presented

wild-type BRAF = test system: wild-type BRAF; parameters: method as in Okaniwa et al., 2012; Zhang et al., 2013; details: ref Okaniwa et al., 2012; Zhang et al., 2013; cited from earlier work
EGFR [11] = biological target: T1, EGFR; parameters: method as in Okaniwa et al., 2012; Zhang et al., 2013; details: ref Okaniwa et al., 2012; Zhang et al., 2013; cited from earlier work

T1 sequence (P00533 669-1210): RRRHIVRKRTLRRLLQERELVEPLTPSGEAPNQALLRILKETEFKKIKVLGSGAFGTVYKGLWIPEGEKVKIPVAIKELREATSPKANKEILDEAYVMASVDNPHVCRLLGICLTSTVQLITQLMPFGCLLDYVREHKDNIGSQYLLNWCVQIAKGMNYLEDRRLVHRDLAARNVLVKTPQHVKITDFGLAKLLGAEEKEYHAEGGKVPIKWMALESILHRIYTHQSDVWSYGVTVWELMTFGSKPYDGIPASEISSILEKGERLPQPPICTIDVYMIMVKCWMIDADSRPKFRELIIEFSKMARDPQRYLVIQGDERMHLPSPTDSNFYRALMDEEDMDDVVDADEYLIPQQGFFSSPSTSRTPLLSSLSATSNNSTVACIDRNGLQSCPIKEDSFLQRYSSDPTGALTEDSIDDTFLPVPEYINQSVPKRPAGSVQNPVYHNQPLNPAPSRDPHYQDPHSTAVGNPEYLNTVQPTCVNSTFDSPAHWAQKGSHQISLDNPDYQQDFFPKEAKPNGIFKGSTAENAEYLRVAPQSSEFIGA
Chain of EGFR^T790M (P00533 25-1210 T790M): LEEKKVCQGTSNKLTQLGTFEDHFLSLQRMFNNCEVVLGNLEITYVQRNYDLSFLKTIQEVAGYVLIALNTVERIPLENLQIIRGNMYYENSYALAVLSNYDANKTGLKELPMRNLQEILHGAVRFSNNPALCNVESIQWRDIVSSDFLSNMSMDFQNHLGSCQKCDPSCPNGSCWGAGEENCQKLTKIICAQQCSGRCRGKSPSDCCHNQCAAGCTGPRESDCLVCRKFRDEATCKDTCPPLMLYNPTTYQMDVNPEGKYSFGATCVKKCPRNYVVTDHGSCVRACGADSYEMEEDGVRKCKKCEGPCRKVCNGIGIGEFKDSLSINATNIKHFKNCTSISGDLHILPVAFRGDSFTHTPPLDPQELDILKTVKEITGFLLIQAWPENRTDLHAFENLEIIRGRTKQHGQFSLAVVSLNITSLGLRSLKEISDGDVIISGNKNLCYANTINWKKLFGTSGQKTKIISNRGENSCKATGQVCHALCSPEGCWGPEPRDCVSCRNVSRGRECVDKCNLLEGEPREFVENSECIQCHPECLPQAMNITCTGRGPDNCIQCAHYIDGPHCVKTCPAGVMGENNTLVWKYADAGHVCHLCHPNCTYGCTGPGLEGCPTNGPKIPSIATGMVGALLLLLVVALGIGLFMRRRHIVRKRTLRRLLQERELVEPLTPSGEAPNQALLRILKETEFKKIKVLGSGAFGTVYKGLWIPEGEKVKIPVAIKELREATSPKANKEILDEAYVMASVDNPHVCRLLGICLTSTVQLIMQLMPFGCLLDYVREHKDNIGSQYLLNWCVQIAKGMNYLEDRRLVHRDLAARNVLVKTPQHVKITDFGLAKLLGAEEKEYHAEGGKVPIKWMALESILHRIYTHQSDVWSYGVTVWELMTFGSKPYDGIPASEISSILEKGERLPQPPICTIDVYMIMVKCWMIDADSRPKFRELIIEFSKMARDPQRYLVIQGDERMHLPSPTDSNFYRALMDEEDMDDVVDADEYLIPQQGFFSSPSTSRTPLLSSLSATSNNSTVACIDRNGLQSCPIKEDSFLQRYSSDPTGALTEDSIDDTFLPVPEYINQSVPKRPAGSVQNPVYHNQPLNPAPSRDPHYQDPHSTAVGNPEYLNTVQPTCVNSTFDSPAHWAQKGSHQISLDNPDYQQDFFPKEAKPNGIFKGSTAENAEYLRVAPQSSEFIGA
T2 sequence (P15056 2-766 V600E limits assumed): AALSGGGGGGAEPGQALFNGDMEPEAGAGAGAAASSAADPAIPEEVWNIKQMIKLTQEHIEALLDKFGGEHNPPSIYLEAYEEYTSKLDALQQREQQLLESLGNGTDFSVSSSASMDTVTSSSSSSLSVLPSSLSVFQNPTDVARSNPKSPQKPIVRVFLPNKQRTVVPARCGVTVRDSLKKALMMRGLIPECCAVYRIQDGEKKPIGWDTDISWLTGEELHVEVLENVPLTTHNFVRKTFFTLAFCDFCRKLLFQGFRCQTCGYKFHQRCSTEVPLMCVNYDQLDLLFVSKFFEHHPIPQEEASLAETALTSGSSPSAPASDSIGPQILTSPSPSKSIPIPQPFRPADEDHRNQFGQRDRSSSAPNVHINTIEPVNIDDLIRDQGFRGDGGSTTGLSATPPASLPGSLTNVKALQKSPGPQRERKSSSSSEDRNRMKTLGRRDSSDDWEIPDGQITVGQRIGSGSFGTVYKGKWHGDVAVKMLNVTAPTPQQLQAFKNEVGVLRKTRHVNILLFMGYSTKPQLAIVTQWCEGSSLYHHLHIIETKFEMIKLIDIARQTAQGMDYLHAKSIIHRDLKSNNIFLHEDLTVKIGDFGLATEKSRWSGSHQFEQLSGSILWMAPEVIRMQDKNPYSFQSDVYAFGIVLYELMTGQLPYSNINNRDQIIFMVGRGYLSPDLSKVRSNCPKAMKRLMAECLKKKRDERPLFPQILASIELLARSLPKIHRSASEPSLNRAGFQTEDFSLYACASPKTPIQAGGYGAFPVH

| SMILES | IC50 (BRAF^V600E [1]) [nM] | GI50 [2] [nM] | GI50 [3] [nM] | IC50 [4] [nM] | IC50 [5] [nM] | IC50 [6] [nM] | IC50 (EGFR [7]) [nM] | melting point [°C] | viability at 96 h, 50 µM [8] [%] | IC50 (EGFR^T790M) [nM] | IC50 [9] [nM] | IC50 (BRAF^V600E [10]) [nM] | IC50 against wild-type BRAF (wild-type BRAF) | IC50 against EGFR (EGFR [11]) |
| --- | --- | --- | --- | --- | --- | --- | --- | --- | --- | --- | --- | --- | --- | --- |
| C=CCn1c(SCC(=O)Nc2cccc(C(=O)/C=C/c3ccc(OC)cc3)c2)nc2ccccc2c1=O [IX] | 650 | 1160 | – | – | – | – | – | – | – | – | – | – | – | – |
| COc1ccc(-c2noc(CSc3nc4ccccc4c(=O)n3-c3ccccc3)n2)cc1 [Compound 9c, 2-((3-(4-Methoxyphenyl)-1,2,4-oxadiazol-5-yl)methylthio)-3-phenylquinazolin-4(3H)-one] | – | – | 26 | 24 ± 2 | 28 ± 3 | 26 ± 2 | 64 ± 5 | 186 to 188 | 91 | 11 ± 2 | 25 ± 2 | 51 ± 5 | – | – |
| COc1cccc2c1C(=O)c1c(O)c3c(c(O)c1C2=O)C[C@@](O)(C(=O)CO)C[C@@H]3O[C@H]1C[C@H](N)[C@H](O)[C@H](C)O1 [Doxorubicin] | – | 1140 | – | – | – | – | – | – | – | – | – | – | – | – |
| Cc1cccc(-n2c(SCc3nc(-c4ccc(Cl)cc4)no3)nc3ccccc3c2=O)c1 [Compound 9h, 2-((3-(4-Chlorophenyl)-1,2,4-oxadiazol-5-yl)methylthio)-3-m-tolylquinazolin-4(3H)-one] | – | – | 30 | 28 ± 2 | 31 ± 3 | 29 ± 2 | 72 ± 5 | 178 to 180 | 89 | 15 ± 2 | 30 ± 3 | 57 ± 5 | – | – |
| COc1cc2ncnc(Nc3cccc(NC(=O)Nc4ccc(Cl)c(C(F)(F)F)c4)c3)c2cc1OCCCN1CCOCC1 [I] | – | – | – | – | – | – | – | – | – | – | – | – | nanomolar range | nanomolar range |
